The structures appear in SMILES notation. Where two headings read alike, the source gives them in different places. Some results are limits rather than exact numbers.

Experimental findings from patent US20160060285A1, “Aminoglycosides, Methods of Synthesis, and Associated Applications” (UTAH STATE UNIVERSITY, priority 2010, published 2016) are described below.

For data set [1], the system named is Staphylococcus aureus ATCC25923. Put plainly: Bacterial growth inhibition (MIC) test, microtiter plate, CLSI protocol. The data set is classed as cell-based.
Data set [2] deals with Fusarium graminearum B4-5A. Put plainly: microbe, parasite or virus in culture. It counts as cell-based. Particulars: F. graminearum B4-5A; RPMI 1640, 35° C., 48 hour.
For data set [3], the system named is Escherichia coli ATCC 25922. Put plainly: Bacterial growth inhibition (MIC) test, microtiter plate, CLSI protocol. The data set is classed as cell-based. As to conditions: E. coli 25922; Luria-Bertani medium, 37° C., 24 hours.
Another data set deals with HeLa cells. Put plainly: Cell viability assay (MTT), cytotoxicity test. As to conditions: for Viable Cells Percentage Compared to Control: MTT. It counts as cell-based, human. The procedure: HeLa cells were grown in commercial DMEM 1× (Gibco) with 10% fetal bovine serum (FBS, Gibco), 100 U/mL penicillin, and 100 μg/mL streptomycin at 37° C. and 5% CO2. The cells were allowed to adhere for 24 h before drug treatment.
The cells were seeded in 96-well microtiter plates (10,000/200 μL). After 24 h of incubation in the media, cells were treated with various concentrations of K608, K4608 and K408 (0.0, 1.0, 10.0, 100.0, 1000 μg/mL and Trition 1×) for 48 h. 20 μL of MTT stock solution (5 mg/mL) was added to each well and incubated for 4 h at 37° C. Upon completion of incubation, the media was carefully removed and washed twice with […] of pbs buffer. Then, 200 μL of DMSO was added to each well; agitated on orbital shaker for 15 min., and the absorbance at 570 nm with 670 nm filter was determined with a microplate reader (Synergy H4). The results are expressed as viability compared with that of control. The experiment was carried out in triplicate in three independent experiments.

For data set [4], the system named is azole-resistant Candida albicans ATCC 64124. Put plainly: Antifungal synergism by checkerboard analysis, K-compound and azole combinations. It counts as cell-based. As to conditions: for MIC alone: K408 checkerboard table; for MIC alone / MIC: compound alone; for MIC K408 with azole: MIC of K408 when combined with the labelled azole; for MIC with K408: MIC of the labelled azole when combined with K408; for MIC with K4608: MIC of the labelled azole when combined with K4608; for FIC Index (K408 with azole): combination of K408 with the labelled azole; for FIC Index (K408 with azole) / FIC Index (K4608 with azole): synergistic if ≦0.5, indifferent if >0.5-4, antagonistic if >4; for FIC Index (K4608 with azole): combination of K4608 with the labelled azole; for MIC: Candida albicans.

Setting [5] is: S. aureus 25923, 37° C., 24 hours.
Where [6] appears, read: first of two separate experiments.
Setting [7] is: second of two separate experiments.
Where [8] appears, read: ATCC64124, K408 checkerboard table, first of two separate experiments.
[9] abbreviates: ATCC64124, K408 checkerboard table, second of two separate experiments.
[10] abbreviates: ATCC64124, K4608 checkerboard table.

For the compound `CCCCOC1C(CO)OC(OC2C(N)CC(N)C(OC3OC(CN)C(O)C(O)C3O)C2O)C(O)C1N` (stereo not drawn) [Compound K404], the MIC in data set [1] (setting [5]) is given as 4-16 mg per L; in data set [2], over 500 mg per L.
Regarding `CCCCCCOC1C(CO)OC(OC2C(N)CC(N)C(OC3OC(CN)C(O)C(O)C3O)C2O)C(O)C1N` (stereo not drawn) [Compound K406], the MIC is recorded as over 250 mg per L in data set [3], 8-64 mg per L in data set [1] (setting [5]) and over 500 mg per L in data set [2].
For the compound `CCCCCCCOC1C(CO)OC(OC2C(N)CC(N)C(OC3OC(CN)C(O)C(O)C3O)C2O)C(O)C1N` (stereo not drawn) [Compound K407], the MIC is over 250 mg per L in data set [3], 125 mg per L in data set [1] and 125 mg per L in data set [2].
On to `CCCCCCCCCOC1C(CO)OC(OC2C(N)CC(N)C(OC3OC(CN)C(O)C(O)C3O)C2O)C(O)C1N` (stereo not drawn) [Compound K409], for which the MIC in data set [3] is recorded as over 250 mg per L; in data set [1] (setting [5]), over 250 mg per L; in data set [2], 62.5 mg per L.
`CCCCCCCCCCOC1C(CO)OC(OC2C(N)CC(N)C(OC3OC(CN)C(O)C(O)C3O)C2O)C(O)C1N` (stereo not drawn) [Compound K410]: the MIC in data set [3] is on record as over 250 mg per L; in data set [1] (setting [5]) it was 125 mg per L; in data set [2] it was 62.5 mg per L.
Turning to `CCCCCCCCCCCCOC1C(CO)OC(OC2C(N)CC(N)C(OC3OC(CN)C(O)C(O)C3O)C2O)C(O)C1N` (stereo not drawn) [Compound K412], the MIC in data set [3] was 125-250 mg per L; in data set [1] (setting [5]) it was 64 mg per L; in data set [2], over 500 mg per L.
Turning to `CCCCCCCCCCCCCCOC1C(CO)OC(OC2C(N)CC(N)C(OC3OC(CN)C(O)C(O)C3O)C2O)C(O)C1N` (stereo not drawn) [Compound K414], the MIC is recorded as over 250 mg per L in data set [3], over 250 mg per L in data set [1] (setting [5]) and over 500 mg per L in data set [2].
The term cell viability denotes a read-out of living cells in per cent, often relative to untreated cells. Take `CCCCCCCCOC[C@H]1OC(O[C@@H]2C(N)CC(N)C(O[C@H]3OC(CN)[C@@H](O)[C@H](O)C3O)[C@@H]2O)[C@H](O)[C@H](N)C1O` (stereo partly drawn) [Compound K608]: the “toxicity to human cervical cancer cell line HeLa” value in the data set with HeLa cells (1.0 to 1000 μg/mL, 48 h) was “not toxic”. The “Viable Cells Percentage Compared to Control” value in the data set on HeLa cells (HeLa, 1 μg/mL, 48 h) came out at 79.47%; in the data set with HeLa cells (HeLa, 10 μg/mL, 48 h) it was 107.9%; in the data set with HeLa cells (HeLa, 100 μg/mL, 48 h), 75.36%; in the data set with HeLa cells (HeLa, 1000 μg/mL, 48 h), 86.49%. In addition, in the data set on HeLa cells (HeLa, at all concentration), the cell viability is listed as about 80%.
With `CCCCOCC1OC(OC2C(N)CC(N)C(OC3OC(CN)C(O)C(O)C3O)C2O)C(O)C(N)C1OCCCC` (stereo not drawn) [Compound K4604], the results for the MIC in data set [3], in data set [1] (setting [5]) and in data set [2] were over 250 mg per L, over 250 mg per L and 125 mg per L, respectively.
For `CCCCCCOCC1OC(OC2C(N)CC(N)C(OC3OC(CN)C(O)C(O)C3O)C2O)C(O)C(N)C1OCCCCCC` (stereo not drawn) [Compound K4606], the MIC in data set [3] is over 250 mg per L; in data set [1] (setting [5]) it was 32-125 mg per L; in data set [2], 3.9 mg per L.
For `CCCCCCCOCC1OC(OC2C(N)CC(N)C(OC3OC(CN)C(O)C(O)C3O)C2O)C(O)C(N)C1OCCCCCCC` (stereo not drawn) [Compound K4607], the MIC is 125 mg per L in data set [3], 8-125 mg per L in data set [1] (setting [5]) and 15.6 mg per L in data set [2].
The corresponding values for `CCCCCCCCCOCC1OC(OC2C(N)CC(N)C(OC3OC(CN)C(O)C(O)C3O)C2O)C(O)C(N)C1OCCCCCCCCC` (stereo not drawn) [Compound K4609] are 16 mg per L, 8 mg per L and 125 mg per L.
As for `CCCCCCCCCCOCC1OC(OC2C(N)CC(N)C(OC3OC(CN)C(O)C(O)C3O)C2O)C(O)C(N)C1OCCCCCCCCCC` (stereo not drawn) [Compound K4610], the MIC in data set [3] was 125 mg per L; in data set [1] (setting [5]), 16 mg per L; in data set [2], over 500 mg per L.
In the same order, the values of `CCCCCCCCCCCCOCC1OC(OC2C(N)CC(N)C(OC3OC(CN)C(O)C(O)C3O)C2O)C(O)C(N)C1OCCCCCCCCCCCC` (stereo not drawn) [Compound K4612] are over 250 mg per L, 64 mg per L and over 500 mg per L.
Consider `CCCCCCCCCCCCCCOCC1OC(OC2C(N)CC(N)C(OC3OC(CN)C(O)C(O)C3O)C2O)C(O)C(N)C1OCCCCCCCCCCCCCC` (stereo not drawn) [Compound K4614], for which the MIC is given as over 250 mg per L in data set [3], over 250 mg per L in data set [1] (setting [5]) and over 500 mg per L in data set [2].
Turning to `Clc1ccccc1C(c1ccccc1)(c1ccccc1)n1ccnc1` [chlotrimazole], in data set [4] (setting [6]), the MIC alone came out at 3.91 µg/mL, the “MIC K408 with azole” value came out at 3.91 µg/mL, the “MIC with K408” value is 0.24 mg/L and the “FIC Index (K408 with azole)” value was 0.37. Moreover, in data set [4] (setting [7]), the MIC alone stood at 7.81 µg/mL, the “MIC K408 with azole” value was found to be 1.95 µg/mL, the “MIC with K408” value turned out to be 0.49 mg/L and the “FIC Index (K408 with azole)” value is 0.13. Besides, in data set [4] (MIC of K4608 when combined with the labelled azole, one experiment), the “MIC K4608 with azole” value worked out at 1.95 µg/mL. Besides, in data set [4] (one experiment), the “MIC with K4608” value was determined as 3.91 µg/mL and the “FIC Index (K4608 with azole)” value is recorded as 0.19.
Regarding `OC(Cn1cncn1)(Cn1cncn1)c1ccc(F)cc1F` [fluconazole], the figures for the MIC in data set [4] (setting [8]), in data set [4] (setting [9]) and in data set [4] (setting [10]) were 250 µg/mL, 250 µg/mL and over 250 µg/mL, respectively. In addition, the “MIC with K408” value is listed as 15.63, 15.63 mg L^−1 in data set [4] (setting [6]) and 15.63, 15.63 mg L^−1 in data set [4] (setting [7]). In data set [4] (one experiment), the “MIC with K4608” value was 31.25 µg/mL. Also, the “FIC Index (K408 with azole)” value in data set [4] (setting [6]) is listed as 0.31, 0.31; in data set [4] (setting [7]), 0.31, 0.31. Further, in data set [4] (one experiment), the “FIC Index (K4608 with azole)” value is 0.25.
As to `CCC(C)n1ncn(-c2ccc(N3CCN(c4ccc(OCC5COC(Cn6cncn6)(c6ccc(Cl)cc6Cl)O5)cc4)CC3)cc2)c1=O` (stereo not drawn) [itraconazole], the MIC in data set [4] (setting [8]) is 250 µg/mL; in data set [4] (setting [9]) it was 250 µg/mL; in data set [4] (setting [10]) it was over 250 µg/mL. The “MIC with K408” value is 0.98, 0.98 mg L^−1 in data set [4] (setting [6]) and 0.98, 0.98 mg L^−1 in data set [4] (setting [7]). The “MIC with K4608” value in data set [4] (one experiment) worked out at 3.91 µg/mL. Also, the “FIC Index (K408 with azole)” value in data set [4] (setting [6]) is on record as 0.25, 0.25; in data set [4] (setting [7]), 0.25, 0.25. The “FIC Index (K4608 with azole)” value in data set [4] (one experiment) was under 0.52.
Regarding `CC[C@@H]([C@H](C)O)n1ncn(-c2ccc(N3CCN(c4ccc(OC[C@@H]5CO[C@@](Cn6cncn6)(c6ccc(F)cc6F)C5)cc4)CC3)cc2)c1=O` [posaconazole], the MIC in data set [4] (setting [8]) was 62.5 µg/mL; in data set [4] (setting [9]), 250 µg/mL. Also, the “MIC with K408” value in data set [4] (setting [6]) was 0.24, 0.24 mg L^−1; in data set [4] (setting [7]), 0.24, 0.24 mg L^−1. In addition, in data set [4] (one experiment), the “MIC with K4608” value came out at 0.49 µg/mL. In addition, the entries for the “FIC Index (K408 with azole)” value in data set [4] (setting [6]) and in data set [4] (setting [7]) were 0.38 and 0.07, respectively. For the same compound, in data set [4] (one experiment), the “FIC Index (K4608 with azole)” value was under 0.13.
For `C[C@@H](c1ncncc1F)[C@](O)(Cn1cncn1)c1ccc(F)cc1F` [voriconazole], the MIC in data set [4] (setting [8]), in data set [4] (setting [9]) and in data set [4] (setting [10]) was 7.81 µg/mL throughout. Also, the entries for the “MIC with K408” value in data set [4] (setting [6]) and in data set [4] (setting [7]) were 1.95 mg/L and 0.81 mg/L, respectively. Further, the “MIC with K4608” value in data set [4] (one experiment) is 0.98 µg/mL. The “FIC Index (K408 with azole)” value in data set [4] (setting [6]) was 0.38, 0.38; in data set [4] (setting [7]), 0.38, 0.38. Further, the “FIC Index (K4608 with azole)” value in data set [4] (one experiment) turned out to be 0.19.
